Assay results taken from patent US7507727B2, “Substituted quinobenzoxazine analogs and methods of using thereof” (Cylene Pharmaceuticals, Inc., priority 2003, dated 2009).

target: c-Myc template DNA (c-myc quadruplex); assay: Quadruplex binding / stop assay (Taq polymerase arrest, capillary electrophoresis); settings: read-out: S DATA; Table 1D, stop assay data
Source text: A high throughput polymerase arrest assay has been developed. The assay comprises contacting a template nucleic acid, often DNA, with a primer, which also is often DNA; contacting the primer/template complex with a compound described herein (also referred to as a “test compound”); contacting the primer/template complex with a polymerase; and separating reaction products. The assay often includes the step of denaturing the primer/template complex mixture and then renaturing the complex, which often is carried out before a test molecule is added to the system. Multiple assays often are carried out using varying concentrations of a test compound, such that an IC50 value can be obtained, for example. The reaction products often include extended primers of different lengths.
Thus, the reaction mixture often includes at least two reaction products when a test compound interacts with a quadruplex structure in the template, one having a completely extended primer and one having an incompletely extended primer, and these two reaction products are separated. The products may be separated using any convenient separation method, such as mass spectrometry and in one embodiment, capillary electrophoresis.
In an embodiment, a primer oligonucleotide covalently linked to a fluorescent label is contacted with template DNA. The resulting complex is contacted with a test molecule and then contacted with a polymerase capable of extending the primer. The reaction products then are separated and detected by capillary electrophoresis. A longer primer sequence was used for practicing this embodiment as compared to embodiments where the primer includes no covalently-linked fluorophore or where capillary electrophoresis is not utilized for separation. Deoxynucleotides are added at any stage of the assay before the separation, often when the primer is contacted with the template DNA. The template DNA/primer complex often is denatured (e.g., by increasing the temperature of the system) and then renatured (e.g., by cooling the system) before a test compound is added).
The mixture was denatured at 95° C. for 5 minutes and, after cooling down to room temperature, was incubated at 37° C. for 15 minutes.
After cooling down to room temperature, 1 mM KCl and the test compound (various concentrations) were added and the mixture incubated for 15 minutes at room temperature. The primer extension was performed by adding 10 mM KCl and Taq DNA Polymerase (2.5 U/reaction, Promega) and incubating at 70° C. for 30 minutes. The reaction was stopped by adding 1 μl of the reaction mixture to 10 μl Hi-Di Formamide mixed and 0.25 μl LIZ120 size standard. Hi-Di Formamide and LIZ120 size standard were purchased from Applied Biosystems.
The partially extended quadruplex arrest product was between 61 or 62 bases long and the full-length extended product was 99 bases long. The products were separated and analyzed using capillary electrophoresis. Capillary electrophoresis was performed using an ABI PRISM 3100-Avant Genetic Analyzer.
Stop Assays. […] A fluorescently labeled primer DNA is then annealed to the 3′ end of the template DNA. A DNA polymerase such as Taq polymerase is then introduced to synthesize a complementary strand of DNA by extending from the fluorescently labeled primer. When the progress of the Taq polymerase is unhindered, it synthesizes a full-length copy of the template.
These products are visualized by capillary electrophoresis.

| IC50 | Compound |
| --- | --- |
| 1 µM | CN(C)CCCCNC(=O)c1cn2c3c(c(N4CCC(NC(=O)OC(C)(C)C)C4)ccc3c1=O)Oc1cc3ccccc3cc1-2 (stereo not shown) [compound 1538] |
| > 15 µM | CN1CCN(CCCNc2c(F)cc3c(=O)c(C(=O)N4CCC(N)C4)cn4c3c2Oc2ccccc2-4)CC1 (stereo not shown) [compound 1628] |
| 1.75 µM | COc1ccc(CCNc2c(F)cc3c(=O)c(C(=O)NCCC4CCCN4C)cn4c3c2Oc2cc3ccccc3cc2-4)cc1 (stereo not shown) [compound 1663] |
| > 15 µM | CC(C)N1CCN(c2c(F)cc3c(=O)c(C(=O)N4CCC(N5CCCC5)CC4)cn4c3c2Oc2ccccc2-4)CC1 [compound 1569] |
| 1.75 µM | CC(O)CNc1c(F)cc2c(=O)c(C(=O)NCCC3CCCN3C)cn3c2c1Oc1cc2ccccc2cc1-3 (stereo not shown) [compound 1656] |
| 0.75 µM | CN(C)CCCCNC(=O)c1cn2c3c(c(N4CCC(NC(=O)OC(C)(C)C)C4)ccc3c1=O)Oc1cc3ccccc3cc1-2 (stereo not shown) [compound 1539] |
| 1 µM | CCCCN1CCC(CNc2c(F)cc3c(=O)c(C(=O)NCCC4CCCN4C)cn4c3c2Oc2cc3ccccc3cc2-4)CC1 (stereo not shown) [compound 1691] |
| 3.3 µM | CN1CCCC1CCNC(=O)c1cn2c3c(c(F)c(F)cc3c1=O)Oc1cc3ccccc3cc1-2 (stereo not shown) [compound 1739] |
| > 15 µM | CN1CCN(C(=O)c2cn3c4c(c(NCCN5CCOCC5)c(F)cc4c2=O)Oc2ccccc2-3)CC1 [compound 1614] |
| 0.75 µM | C[C@@H](O)CNc1c(F)cc2c(=O)c(C(=O)NCCC3CCCN3C)cn3c2c1Oc1cc2ccccc2cc1-3 (stereo partly shown) [compound 1682] |
| 0.75 µM | CC1(C)CC(NC(=O)c2cn3c4c(c(NCCN5CCCC5)ccc4c2=O)Oc2cc4ccccc4cc2-3)CC(C)(C)N1 [compound 1519] |
| 5 µM | CN1CCCC1CCN(CC[C@@H]1CCCN1C)C(=O)c1cn2c3c(c(N4CCC(c5cnccn5)C4)c(F)cc3c1=O)Oc1cc3ccccc3cc1-2 (stereo partly shown) [compound 1754] |
| > 15 µM | O=C(NCCN1CCCC1)c1cn2c3c(c(N4CC5CCCNC5C4)c(F)cc3c1=O)Oc1ccccc1-2 (stereo not shown) [compound 1728] |
| 0.75 µM | CN1CCCC1CCNC(=O)c1cn2c3c(c(NC4CCCNC4)c(F)cc3c1=O)Oc1cc3ccccc3cc1-2 (stereo not shown) [compound 1490] |
| > 15 µM | CCCCOCCCNC(=O)c1cn2c3c(c(N4CCC(N)C4)c(F)cc3c1=O)Oc1cc3ccccc3cc1-2 (stereo not shown) [compound 1692] |
| > 15 µM | O=C(NCCN1CCCC1)c1cn2c3c(c(NCCN4CCOCC4)c(F)cc3c1=O)Oc1ccccc1-2 [compound 1609] |
| > 15 µM | C[C@@H](O)CNC(=O)c1cn2c3c(c(N4CCC(N)C4)c(F)cc3c1=O)Oc1cc3ccccc3cc1-2 (stereo partly shown) [compound 1708] |
| 1.75 µM | CN1CCCC1CCNC(=O)c1cn2c3c(c(NCCCO)c(F)cc3c1=O)Oc1cc3ccccc3cc1-2 (stereo not shown) [compound 1678] |
| 1.75 µM | CC1CCCC(C)N1CCCNc1c(F)cc2c(=O)c(C(=O)NCCC3CCCN3C)cn3c2c1Oc1cc2ccccc2cc1-3 (stereo not shown) [compound 1687] |
| > 15 µM | CN1CCN(CCCNc2c(F)cc3c(=O)c(C(=O)NCCCCN)cn4c3c2Oc2ccccc2-4)CC1 [compound 1579] |
| > 15 µM | O=C(NCCN1CCCC1)c1cn2c3c(c(SCCc4cnccn4)c(F)cc3c1=O)Oc1ccccc1-2 [compound 1785] |
| > 15 µM | COc1cccc(CCNC(=O)c2cn3c4c(c(N5CCC(N)C5)c(F)cc4c2=O)Oc2cc4ccccc4cc2-3)c1 (stereo not shown) [compound 1698] |
| 1 µM | N=C(N)NCC1CCCC(CNC(=O)c2cn3c4c(c(NCCCN5CCOCC5)c(F)cc4c2=O)Oc2cc4ccccc4cc2-3)C1 (stereo not shown) [compound 1651] |
| 0.75 µM | CCOC(CCCNc1c(F)cc2c(=O)c(C(=O)NCCC3CCCN3C)cn3c2c1Oc1cc2ccccc2cc1-3)OCC (stereo not shown) [compound 1674] |
| > 15 µM | CC1(C)CC(NC(=O)c2cn3c4c(c(NCCN5CCOCC5)c(F)cc4c2=O)Oc2ccccc2-3)CC(C)(C)N1 [compound 1615] |
| > 15 µM | CN1CCN(C(=O)c2cn3c4c(c(NCCN5CCCC5)c(F)cc4c2=O)Oc2ccccc2-3)CC1 [compound 1602] |
| 0.92 µM | CN1CCCC1CCNC(=O)c1cn2c3c(c(S(=O)(=O)CCc4cnccn4)c(F)cc3c1=O)Oc1cc3ccccc3cc1-2 (stereo not shown) [compound 1768] |

same assay, conditions: read-out: Stop Data c-Myc μM; concentration at which 50% of the DNA was arrested (arrested:full-length 1:1)

| IC50 | Compound |
| --- | --- |
| 1.75 µM | CC(C)(C)OC(=O)N[C@H]1CCN(c2c(F)cc3c(=O)c(C(=O)NCCN4CCCC4)cn4c5cc6c(cc5oc2c34)c(=O)c2ccccc26)C1 [compound 202] |
| 1.75 µM | Nc1c(F)c(N2CCC(N)C2)c2c3c1c(=O)c(C(=O)NCCCN1CCOCC1)cn3-c1cc3ccccc3cc1O2 (stereo not shown) [compound 235] |
| 1.75 µM | O=C(NCCCn1ccnc1)c1cn2c3c(c(NCCN4CCCC4)c(F)cc3c1=O)Oc1c-2ccc2ccccc12 [compound 140] |
| 0.75 µM | CN1CCN(CCCNc2c(F)cc3c(=O)c(C(=O)NCCC4CCCN4C)cn4c3c2Oc2cc3ccccc3cc2-4)CC1 (stereo not shown) [compound 394] |
| 1.75 µM | COc1cccc(CCNc2c(F)cc3c(=O)c(C(=O)NCCC4CCCN4C)cn4c3c2Oc2cc3ccccc3cc2-4)c1 (stereo not shown) [compound 289] |
| 0.75 µM | CC1(C)CC(NC(=O)c2cn3c4c(c(NCCN5CCCC5)ccc4c2=O)Oc2cc4ccccc4cc2-3)CC(C)(C)N1 [compound 447] |
| 0.75 µM | CN1CCN(CCCNc2c(F)cc3c(=O)c(C(=O)O)cn4c5cc6oc7cc(N)ccc7[nH]c6cc5oc2c34)CC1 [compound 22] |
| 1 µM | CC(C)(C)OC(=O)N[C@@H]1CCN(c2c(F)cc3c(=O)c(C(=O)NCCCCN=C(N)N)cn4c3c2Oc2cc3ccccc3cc2-4)C1 [compound 322] |
| 2.5 µM | CN1CCCC1CCNc1c(F)cc2c(=O)c(C(=O)N3CC[C@@H](NC(=O)OC(C)(C)C)C3)cn3c2c1Oc1cc2ccccc2cc1-3 (stereo partly shown) [compound 68] |
| 0.75 µM | CN1CCCC1CCNC(=O)c1cn2c3c(c(N4CC[C@@H](NC(=O)CCNCCCN5CCOCC5)C4)c(F)cc3c1=O)Oc1cc3c(cc1-2)oc1ccccc13 (stereo partly shown) [compound 416] |
| 1.75 µM | NC1CCN(c2c(F)cc3c(=O)c(C(=O)NCCCn4ccnc4)cn4c3c2Oc2cc3ccccc3cc2-4)C1 (stereo not shown) [compound 200] |
| 1 µM | CN(C)CC(C)(C)CNC(=O)c1cn2c3c(c(NCCCN4CCOCC4)c(F)cc3c1=O)Oc1cc3ccccc3cc1-2 [compound 332] |
| 1.75 µM | CN1CCCC1CCNC(=O)c1cn2c3c(c(N4CCNC(c5cccnc5)C4)c(F)cc3c1=O)Oc1cc3ccccc3cc1-2 (stereo not shown) [compound 265] |
| 0.75 µM | N[C@@H]1CCN(c2c(F)cc3c(=O)c(C(=O)NCCN4CCCC4)cn4c3c2Oc2c-4ccc3ccccc23)C1 [compound 401] |
| 1.75 µM | CN1CCCC1CCNc1c(F)cc2c(=O)c(-c3nc4ccccc4s3)cn3c2c1Oc1cc2ccccc2cc1-3 (stereo not shown) [compound 114] |
| 2.5 µM | CN1CCN(CCCNc2c(F)cc3c(=O)c(C(=O)N4CCC(N)C4)cn4c5cc6c(=O)c7ccccc7c(=O)c6cc5oc2c34)CC1 (stereo not shown) [compound 95] |
| 1.75 µM | O=C(CNCCN1CCCC1)N[C@@H]1CCN(c2c(F)cc3c(=O)c(C(=O)N4CCOCC4)cn4c3c2Oc2cc3c(cc2-4)oc2ccccc23)C1 [compound 180] |
| 1.75 µM | O=C(NCCN1CCCC1)c1cn2c3c(c(NCCN4CCOCC4)c(F)cc3c1=O)Oc1cc3c(cc1-2)oc1ccccc13 [compound 148] |
| 1.75 µM | CN1CCCC1CCNC(=O)c1cn2c3c(c(NCC(O)CO)c(F)cc3c1=O)Oc1cc3ccccc3cc1-2 (stereo not shown) [compound 292] |

| IC50 | Compound |
| --- | --- |
| 2.5 µM | N[C@@H]1CCN(C(=O)c2cn3c4c(c(NCCN5CCCC5)c(F)cc4c2=O)Oc2c-3ccc3ccccc23)C1 [compound 86] |
| 0.75 µM | CN1CCN(CCCNc2ccc3c(=O)c(C(=O)NCCN4CCCC4)cn4c3c2Oc2cc3ccccc3cc2-4)CC1 [compound 454] |
| 1.75 µM | Nc1c(F)c(NCCCN2CCOCC2)c2c3c1c(=O)c(C(=O)N1CCOCC1)cn3-c1cc3ccccc3cc1O2 [compound 222] |
| 0.9 µM | CN(C)CCCCNC(=O)c1cn2c3cc4c(=O)c5ccccc5c(=O)c4cc3oc3c(NCCC4CCCN4C)c(F)cc(c1=O)c32 (stereo not shown) [compound 347] |
| 0.75 µM | CC1(C)CC(NC(=O)c2cn3c4c(c(N5CCC(N)C5)c(F)cc4c2=O)Oc2cc4ccccc4cc2-3)CC(C)(C)N1 (stereo not shown) [compound 445] |
| 2.5 µM | CN1CCCC1CCNc1c(F)cc2c(=O)c(C(=O)N3CCC(N)C3)cn3c4cc5c(=O)c6ccccc6c(=O)c5cc4oc1c23 (stereo not shown) [compound 93] |
| 1.75 µM | Nc1c(F)c(N2CCC(N)C2)c2c3c1c(=O)c(C(=O)NCCN1CCOCC1)cn3-c1cc3ccccc3cc1O2 (stereo not shown) [compound 238] |
| 0.75 µM | O=C(NCCN1CCCC1)c1cn2c3c(c(N4CCC(c5cnccn5)C4)c(F)cc3c1=O)Oc1cc3ccccc3cc1-2 (stereo not shown) [compound 462] |
| 1.75 µM | O=C(NCCCN1CCOCC1)c1cn2c3c(c(NCCCN4CCOCC4)c(F)cc3c1=O)Oc1cc3c(cc1-2)oc1ccccc13 [compound 143] |
| 0.75 µM | CN1CCCC1CCNC(=O)c1cn2c3c(c(NCCN4CCCC4)ccc3c1=O)Oc1cc3ccccc3cc1-2 (stereo not shown) [compound 446] |
| 0.75 µM | CN1CCN(CCCNC(=O)c2cn3c4cc5c(cc4oc4c(NCCC6CCCN6C)c(F)cc(c2=O)c43)c(=O)c2ccccc25)CC1 (stereo not shown) [compound 426] |
| 1.75 µM | CN1CCCC1CCNc1c(F)cc2c(=O)c(C(=O)NCCCn3ccnc3)cn3c2c1Oc1c-3ccc2ccccc12 (stereo not shown) [compound 135] |
| 1.75 µM | CN1CCCC1CCNC(=O)c1cn2c3c(c(N)c(F)c(N4CC[C@H](N)C4)c3c1=O)Oc1cc3ccccc3cc1-2 (stereo partly shown) [compound 189] |
| 0.9 µM | Nc1c(F)cc2c(=O)c(C(=O)O)cn3c2c1Oc1c-3ccc2ccccc12 [compound 16] |
| 1.75 µM | CN(C)CCCCNC(=O)c1cn2c3c(c(NCCCN4CCOCC4)c(F)cc3c1=O)Oc1c-2ccc2ccccc12 [compound 129] |
| 1.75 µM | CN1CCCC1CCNC(=O)c1cn2c3c(c(NC4CCN(Cc5ccccc5)CC4)c(F)cc3c1=O)Oc1cc3ccccc3cc1-2 (stereo not shown) [compound 258] |
| 0.9 µM | CN1CCCC1CCNC(=O)c1cn2c3cc4c(=O)c5ccccc5c(=O)c4cc3oc3c(NCCC4CCCN4C)c(F)cc(c1=O)c32 (stereo not shown) [compound 346] |
| 0.9 µM | CN1CCN(CCCNc2c(F)cc3c(=O)c(C(=O)NCCC4CCCN4C)cn4c5cc6c(=O)c7ccccc7c(=O)c6cc5oc2c34)CC1 (stereo not shown) [compound 349] |
